Test results as given in patent US20110117220A1, “PREPARATION METHOD OF PLANT EXTRACT USING HIGH PRESSURE-ENZYMATIC DECOMPOSITION TECHNIQUE AND THE COSMETIC COMPOSITION CONTAINING THE EXTRACT” (AMOREPACIFIC CORPORATION, priority 2009, published 2011).
Values after ≈ are worked out from the molar mass of the structure shown. Each block holds one compound with its values, some of them ahead of it.

What was measured:
[1] = DPPH radical elimination (antioxidant activity); format: biochemical; settings: 100 μM DPPH in ethanol, 37° C., 30 minutes, absorbance 540 nm
Description: In order to measure the antioxidant effect of the plant extract prepared using the high-pressure enzymatic decomposition technique, a DPPH radical elimination effect was compared between the green tea extract prepared using the high-pressure enzymatic decomposition technique of the present invention (Example 1), the green tea extract prepared using the solvent extraction technique (Comparative Example 3), and Baicalin, a known antioxidant substance.
To measure the antioxidant effects of these extracts, a method of evaluating antioxidant activity based on the change in absorbance caused by the reduction of the organic radical DPPH (1,1-diphenyl-2-picrylhydrazyl) was used. The decrease in absorbance caused by the inhibition of oxidation of DPPH compared to the control was measured, and the concentration (IC50) at which the absorbance was 50% of the control was defined as the effective antioxidant concentration. A lower IC50 value indicates a higher DPPH removal effect, indicating higher antioxidant activity.
Specifically, 10 μl of each of the extracts of Example 1 and Comparative Example 3 and Baicalin was added to 100 μM of a solution of DPPH in ethanol to prepare a reaction solution. The reaction solution was allowed to react at 37° C. for 30 minutes, and then measured for absorbance at 540 nm.

[2] = tested on: transglutaminase-1; test: Promotion of transglutaminase-1 synthesis in human skin cells; format: cell-based; settings: concentration 1.5 mM, 2 days
Method: Because the synthesis of transglutaminase-1 is essential for the formation and maintenance of the horny layer, the effect of promoting the synthesis of transglutaminase-1 can be considered to enhance the skin barrier and increase the skin moisturizing effect. Specifically, human skin cells were added to each well of a 96-well plate at a density of 5×10^4 cells/well and allowed to adhere to each well for 24 hours. The adhered cells were treated with each of the test materials, and after 2 days, the medium was removed, and the cells were stored in a refrigerator at −20° C. The treated cells were disrupted by subjecting the cells twice to freeze-thawing, and then treated with a mixture of acetone:ethanol (1:1, v/v) stored at −20° C. Then, the cells were allowed to stand at 4° C. for 30 minutes so as to be immobilized. Then, the cells were allowed to stand at room temperature to evaporate the organic solvent. […] The expression level of transglutaminase in the cells was determined by measuring the absorbance at 490 nm, and the correction of the measurement was carried out by measuring the background at 630 nm. The absorbance values of the treated cells were compared with the absorbance value of an untreated control group, thereby calculating the rate of promotion of transglutaminase-1 synthesis, and the results of the calculation are shown in Table 6 below.

[3] = tested on: tyrosinase; test: Tyrosinase activity inhibition (method of Vanni et al); format: biochemical; settings: concentration 200 mg/ml; 37° C., 10 minutes
Description: In order to measure the skin whitening effect of the plant extract prepared using the high-pressure enzymatic decomposition technique, a tyrosinase activity inhibitory effect was compared between the green tea extract of Example 1 prepared using the high-pressure enzymatic decomposition technique of the present invention, the green tea extract of Comparative Example 3 prepared using the solvent extraction technique, and vitamin C, a typical whitening functional component.
The tyrosinase activity inhibitory effect was measured using the method of Vanni at al (A. Vanni, Annali Di Chimica, 80, p35, 1990). Specifically, 1.0 ml of 0.1M potassium phosphate buffer (pH 6.8), 1.0 ml of 0.3 mg/ml tyrosine aqueous solution and 0.1 ml of 1,250 units/ml tyrosinase (SIGMAT-7755) were mixed with each other, and 0.2 ml of each sample solution was added thereto at a concentration of 200 mg/ml. Then, the mixture was subjected to an enzymatic reaction at 37° C., for 10 minutes. The absorbance of the reaction solution was measured at 480 nm, and based on the results of the measurement, the tyrosinase activity inhibitory rate (%) of each sample was calculated according to the following equation 2. […]
wherein A: absorbance at 480 nm of a reaction solution to which the sample was not added; and B: absorbance at 480 nm of a reaction solution to which the sample was added.

IC50 (DPPH radical elimination) [1]: 3100 µg/mL (≈ 6.95 mM)
SMILES: O=C(O)[C@H]1O[C@@H](Oc2cc3oc(-c4ccccc4)cc(=O)c3c(O)c2O)[C@H](O)[C@@H](O)[C@@H]1O [Baicalin]

SMILES: [Ca+2].[Cl-].[Cl-] [Calcium chloride, calcium chloride]
Promotion rate of transglutaminase-1 synthesis (%) [2]: 169.9 ± 6.4%

Tyrosinase activity inhibitory rate (%) [3]: 20%
SMILES: O=C1O[C@H]([C@@H](O)CO)C(O)=C1O [Vitamin C, vitamin C]
